{"source": "paper PMC5413018", "about": "“Neuropeptide S (NPS) variants modify the signaling and risk effects of NPS Receptor 1 (NPSR1) variants in asthma” (PLoS ONE, 2017)", "key": {"chemotaxis": {"test_system": "chemotaxis", "settings": "cited from earlier work", "description": "(§1) In our cells assays, the magnitude of the mRNA expression of NR4A1 was clearly dependent on the combination of NPS and NPSR1 variants (Fig 2). NR4A1 is expressed in lymphocytes upon stimulation and is anti-inflammatory. NR4A1 has been recently described as a key regulator of catecholamine production by macrophages linking sympathetic stress response and inflammation ..."}, "phagocytosis": {"test_system": "phagocytosis", "settings": "cited from earlier work", "description": "as §1"}, "[1]": {"test_system": "serum pro-inflammatory cytokines", "settings": "pigs, central and peripheral administration; cited from earlier work", "description": "as §1"}, "NPSR1": {"test_system": "NPSR1", "settings": "cited from earlier work", "description": "To compare the bioactivities of the two NPS variants, we measured the dose-responses of NPSR1-Ile(107) and NPSR1-Asn(107) coding variants to either wildtype NPS-Val(6) or alternative NPS-Leu(6) in a luciferase assay dependent on the activation of a cAMP-response element (CRE). This assay was used since elevation of the intracellular cAMP levels activates cAMP response element binding protein (CREB) via […]. Activated CREB binds to CRE and induces the expression of downstream target ..."}, "NPSR1-Ile(107)": {"target": "T1, NPSR1-Ile(107) (Homo sapiens, UniProt Q6W5P4, N107I)", "T1 sequence (Q6W5P4 1-371 N107I)": "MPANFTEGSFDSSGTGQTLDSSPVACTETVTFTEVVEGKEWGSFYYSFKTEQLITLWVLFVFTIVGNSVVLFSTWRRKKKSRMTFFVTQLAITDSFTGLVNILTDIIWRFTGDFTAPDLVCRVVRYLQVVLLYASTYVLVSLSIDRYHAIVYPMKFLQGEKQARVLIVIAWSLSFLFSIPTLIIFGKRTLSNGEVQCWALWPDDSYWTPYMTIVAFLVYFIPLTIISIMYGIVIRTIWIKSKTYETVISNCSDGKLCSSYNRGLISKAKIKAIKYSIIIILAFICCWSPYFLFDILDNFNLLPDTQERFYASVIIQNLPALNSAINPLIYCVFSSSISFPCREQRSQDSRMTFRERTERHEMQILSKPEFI", "assay": "Real-time RT-PCR of NPSR1 downstream target genes in HEK293 cells, NPSR1-Ile(107)", "assay_type": "cell-based", "design": "expressed in transfected cells; host or cells: HEK293", "description": "The activation of CRE results in transcriptional changes of downstream target genes. To examine whether the observed differences in the promoter activity also affected gene expression, we measured the effects of NPS variants on known NPSR1 downstream target genes. NR4A1 (nuclear receptor subfamily 4, group A, member 1), FOS (FBJ murine osteosarcoma viral oncogene homolog), and chemokine ligands CXCL2 and CCL20 were selected as they were among the most influenced genes after NPS stimulation and their expression also differed between transcriptome comparisons of HEK293 cells expressing either NPSR1-Ile(107) or NPSR1-Asn(107). In the present study, HEK293 cells transiently transfected with either NPSR1-Ile(107) or NPSR1-Asn(107) coding variants were stimulated with 100 nM of either NPS-Val(6) or NPS-Leu(6) for 1, 3, 6, and 24 h, and changes in gene expression were analyzed with RT-PCR.\nFig 2 Real time RT-PCR analysis of NPSR1 downstream target genes. […] GAPDH was used as the endogenous reference, and data are expressed as mean of triplicate samples. […] In all experiments, results were calculated with the comparative Ct method.\nHuman embryonic kidney cells (HEK293) were cultured in MEM+GlutaMAX-1 medium (Gibco/Invitrogen) supplemented with 10% fetal calf serum (FCS) (Biosera), 1% sodium pyruvate, 1% non-essential amino acids and 1% penicillin/streptomycin (Gibco/Invitrogen). […] The HEK293 cell line was chosen for ligand-receptor studies because it is a well-established model for addressing numerous questions in basic biology and is easy to transfect and amenable of stringent quantitative assessment. […]\nThe mRNA expression was measured with qRT-PCR using either SYBR Green (for NR4A1, FOS, IER3, and EGR1, the primer sequences are given in S5 Table) or TaqMAN assay (Hs00601975 for CXCL2 Hs00601975, Hs01011368 for CCL20, Hs01036497 for NPSR1 and Pre-Developed TaqMAN Assay Reagents, Part No. 4310884 for GAPDH; Applied Biosystems). […]"}, "[2]": {"settings": "HEK293 with NPSR1-Ile(107) or NPSR1-Asn(107), 100 nM NPS"}}}
{"substance": "Neuropeptide S (SFRNGVGTGMKKTSFQRAKS; Neuropeptide S; UniProt P0C0P6 70-89, looked up) [NPS, Neuropeptide S, variant not specified at the place]", "values": [{"measurement": "effects on chemotaxis (in words)", "setting": "chemotaxis", "value": "direct effects"}, {"measurement": "effects on phagocytosis (in words)", "setting": "phagocytosis", "value": "direct effects"}, {"measurement": "levels of serum pro-inflammatory cytokines (in words)", "setting": "[1]", "value": "could be activated"}, {"measurement": "cAMP production on NPSR1 activation (in words)", "setting": "NPSR1", "value": "increasing cAMP production"}, {"measurement": "downstream signaling in cells expressing NPSR1-Ile(107) vs NPSR1-Asn(107) (in words)", "setting": "NPSR1-Ile(107); HEK293, 100 nM, compared with cells expressing NPSR1-Asn(107)", "value": "stronger downstream signaling"}, {"measurement": "time of mRNA induction of NR4A1, FOS and CXCL2", "setting": "NPSR1-Ile(107); [2]", "value": 1, "unit": "h"}, {"measurement": "time of up-regulation of CCL20 mRNA", "setting": "NPSR1-Ile(107); [2]", "value": 3, "unit": "h"}]}
